Source: the NIST ThermoML archive (doi:10.1021/je5003225)

Key:
[1] = Liquid; Ebulliometric method (Recirculating still)
[2] = refractive index (Na D-line) (dimensionless); conditions: 298.15 K; 101.33 kPa; Liquid; Standard Abbe refractometry
[3] = xn = mol fraction of the nth substance listed; conditions: 298.15 K, 101 kPa, Liquid, Vibrating tube method

CCC(C)O (centres undefined) [butan-2-ol]
Conditions | Normal boiling temperature [°C] | refractive index
[1] | 99.61 | –
[2] | – | 1.3949

CCC(C)O (centres undefined) [butan-2-ol] + CCOC(C)=O
[3]
Conditions | mass density [kg/m3]
x2 = 0 | 802.5
x2 = 0.0415 | 805.6
x2 = 0.0917 | 809.5
x2 = 0.1482 | 813.9
x2 = 0.208 | 818.7
x2 = 0.257 | 822.8
x2 = 0.2963 | 826.2
x2 = 0.3488 | 830.7
x2 = 0.3914 | 834.5
x2 = 0.4397 | 838.9
x2 = 0.4905 | 843.5
x2 = 0.5313 | 847.3
x2 = 0.6 | 853.8
x2 = 0.6539 | 859
x2 = 0.7031 | 863.8
x2 = 0.741 | 867.5
x2 = 0.7953 | 873
x2 = 0.8528 | 878.9
x2 = 0.8891 | 882.6
x2 = 0.9484 | 889

CCC(C)O (centres undefined) [butan-2-ol] + COC(C)=O
Conditions | mass density [kg/m3]
[3], x2 = 0 | 802.5

CCOC(C)=O [ethyl acetate] + CCC(C)O
Conditions | mass density [kg/m3]
[3], x1 = 1 | 894.5

COC(C)=O [methyl ethanoate] + CCC(C)O
[3]
Conditions | mass density [kg/m3]
x1 = 0.058 | 807.2
x1 = 0.1719 | 817.3
x1 = 0.2756 | 827.5
x1 = 0.3391 | 834.2
x1 = 0.4544 | 847.3
x1 = 0.4714 | 849.3
x1 = 0.5051 | 853.4
x1 = 0.5458 | 858.5
x1 = 0.593 | 864.5
x1 = 0.6822 | 876.6
x1 = 0.799 | 893.7
x1 = 0.8576 | 902.9
x1 = 0.8788 | 906.3
x1 = 0.9586 | 919.9
x1 = 1 | 927.3
